According to the OPERA property sets (Mansouri et al. 2018):

SMILES	logP
CCCCCC1(CC)C(=O)NC(=O)NC1=O	2.24
CC(=O)Nc1ccccc1	1.16
CCCCOc1ccc(CC(=O)NO)cc1	2.08
Brc1ccncc1	1.54
c1ccc(-c2ccncc2)nc1	1.58
Cn1cccn1	0.23
CN1C(=O)CN=C(c2ccccc2)c2cc(C#N)ccc21	1.8
CC(=O)c1ccccc1[N+](=O)[O-]	1.28
NC(=S)c1cccs1	1.34
O=C(O)CCc1c[nH]c2ccccc12	1.75
C1CCCC1	3
Cc1ccc(C(O)c2ccccc2)cc1 (centres undefined)	3.13
CS(=O)(=O)OCCCCOS(C)(=O)=O	-0.52
C=CC#N	0.25
c1ccc2c(c1)OCCO2	2.01
CC(=O)Sc1ccccc1	2.23
COc1cc(C(O)CN)ccc1O (centres undefined)	-1.05
CCN(CC)c1ccccc1	3.31
OCCCOc1cccc(CN2CCCCC2)c1	2.78
Cc1onc(-c2c(Cl)cccc2Cl)c1C(=O)N[C@@H]1C(=O)N2[C@@H]1SC(C)(C)[C@@H]2C(=O)O	2.91
CC(=O)N(c1ccc(N2CCOCC2)nn1)n1c(C)ccc1C	1.64
CC/C(=C\c1ccccc1)[N+](=O)[O-]	2.86
c1ccc2[nH]cnc2c1	1.32
CN(c1ccccn1)S(=O)(=O)c1ccc(N)cc1	1.3
CCC(C)=O	0.29

SMILES	logP
CN(C)/N=N/c1ccccc1CO	1.73
CNCC(O)c1ccc(O)cc1 (centres undefined)	-0.45
Nc1ccc(C(=O)Oc2cccc(F)c2)c(O)c1	3.42
Nc1ncnc2c1ncn2C1CC(O)C(CO)O1 (centres undefined)	-0.55
CCCN(CC)C(CC)C(=O)Nc1c(C)cccc1C (centres undefined)	3.69
CC(C)OC(=O)c1ccccc1C(=O)OC(C)C	2.83
CN(C)CCCCc1cccnc1	1.49
O=NN1CCN(N=O)CC1	-0.85
NS(=O)(=O)c1ccc(S(=O)(=O)CCO)s1	-0.54
NC(=O)OCc1ccc(Cl)cc1	1.97
COC(N)=O	-0.66
CCCCBr	2.75
Cc1cc(NN)ncn1	0.62
CCC(C)n1c(=O)[nH]c(C)c(Br)c1=O (centres undefined)	2.11
c1ccc(N(c2ccccc2)c2ccccc2)cc1	5.74
S=C1CCCN1	-0.05
Nc1nc(N)c2ccccc2n1	1
COP(=O)(C=C(Cl)Cl)OC	1.4
CN(C)c1ccncc1	1.34
Cc1cccc(C)c1C	3.66
O=NN1CCNCC1	0.18
CCCC(N)Cc1ccccc1 (centres undefined)	2.79
ClCCc1ccccc1	2.95
COc1cc(O)ccc1O	0.47
NC(=O)C(=Cc1cccc(F)c1)C(N)=O	0.1

SMILES	logP
CCOC(=O)c1ccncc1	1.43
c1cc2nc[nH]c2cn1	0.18
CN(C)c1ccc(S(N)(=O)=O)cc1	0.76
FC(F)(Cl)Cl	2.16
CCN(CC)C(=O)C(C)Oc1cccc2ccccc12 (centres undefined)	3.36
CCOCc1ccccc1NC(=O)OCCN1CCCCC1	2.72
CN(C(N)=S)c1ccccc1	0.85
O=C1C(Cl)=C(Nc2ccccc2)C(=O)c2ccccc21	4.22
COc1ccccc1O	1.32
CNCCNC	-0.62
Clc1cc(Cl)c(Cl)c(Cl)c1	4.56
O=C(O)Cc1cccc(C(F)(F)F)c1	2.62
O=C(/C=C/c1ccccc1)c1ccccc1	3.08
COc1cccc(Cl)c1	2.98
CCCCCCOCc1cccc(NC(=O)OCCN2CCCCC2)c1	4.97
CSc1ccc(C(=O)O)cc1	2.74
CON(C)C(=O)Nc1cccc(C(F)(F)F)c1	2.64
Clc1cccc(Cl)n1	2.15
Cc1ccc(NC=O)cc1	1.61
O=C(O)COc1ccccc1	1.34
CN(C)C(=O)c1cccnc1	-0.48
Cc1[nH]c(=O)n(C(C)(C)C)c(=O)c1Cl	1.89
Cc1cccc(OCc2ccccc2)n1	3.43
CNC(=O)NC	-0.49
